US20170190671A1, “BIS(ARYL)CATECHOL DERIVATIVES AS HERBICIDES” (E I DU PONT DE NEMOURS AND COMPANY, priority 2014, published 2017)

Key:
Assay type in all cases: in vivo
[1] = system: Italian ryegrass (Lolium multiflorum); experiment: Test A preemergence; conditions: Lolium multiflorum, pre-emergence, 240 h; for pest or weed control at 31 g/ha: 31 g ai/ha, 0 to 100 scale (0 no effect, 100 complete control), read-out: Ryegrass, Italian plant response rating; for pest or weed control at 125 g/ha: 125 g ai/ha, 0 to 100 scale, read-out: Plant response rating, Ryegrass, Italian
Source text: (§1) Seeds of plant species selected from barnyardgrass (Echinochloa crus-galli), kochia (Kochia scoparia), ragweed (common ragweed, Ambrosia elatior), Italian ryegrass (Lolium multiflorum), large (Lg) crabgrass (Digitaria sanguinalis), giant foxtail (Setaria faberii), morningglory (Ipomoea spp.), pigweed (Amaranthus retroflexus), velvetleaf (Abutilon theophrasti), wheat (Triticum aestivum), and corn (Zea mays) were planted into a blend of loam soil and sand and treated preemergence with a directed soil spray using test chemicals formulated in a non-phytotoxic solvent mixture which included a surfactant.
(§2) At the same time, plants selected from these crop and weed species and also blackgrass (Alopecurus myosuroides), and galium (catchweed bedstraw, Galium aparine) were planted in pots containing the same blend of loam soil and sand and treated with postemergence applications of test chemicals formulated in the same manner. Plants ranged in height from 2 to 10 cm and were in the one- to two-leaf stage for the postemergence treatment. Treated plants and untreated controls were maintained in a greenhouse for approximately 10 days, after which time all treated plants were compared to untreated controls and visually evaluated for injury. Plant response ratings, summarized in Table A, are based on a 0 to 100 scale where 0 is no effect and 100 is complete control. A dash (-) response means no test result.

[2] = system: barnyardgrass (Echinochloa crus-galli); experiment: Test A preemergence; conditions: Echinochloa crus-galli, pre-emergence, 240 h; for pest or weed control at 31 g/ha: 31 g ai/ha, 0 to 100 scale (0 no effect, 100 complete control), read-out: Barnyardgrass plant response rating; for pest or weed control at 125 g/ha: 125 g ai/ha, 0 to 100 scale, read-out: Plant response rating, Barnyardgrass
Source text: as §1, §2

[3] = system: ragweed (common ragweed, Ambrosia elatior); experiment: Test A preemergence; conditions: Ambrosia artemisiifolia, pre-emergence, 240 h; for pest or weed control at 31 g/ha: 31 g ai/ha, 0 to 100 scale (0 no effect, 100 complete control), read-out: Ragweed plant response rating; for pest or weed control at 125 g/ha: 125 g ai/ha, 0 to 100 scale, read-out: Plant response rating, Ragweed
Source text: as §1, §2

[4] = system: giant foxtail (Setaria faberii); experiment: Test A preemergence; conditions: Setaria faberi, pre-emergence, 240 h; for pest or weed control at 31 g/ha: 31 g ai/ha, 0 to 100 scale (0 no effect, 100 complete control), read-out: Foxtail, Giant plant response rating; for pest or weed control at 125 g/ha: 125 g ai/ha, 0 to 100 scale, read-out: Plant response rating, Foxtail, Giant
Source text: as §1, §2

[5] = system: pigweed (Amaranthus retroflexus); experiment: Test A preemergence; conditions: Amaranthus retroflexus, pre-emergence, 240 h; for pest or weed control at 31 g/ha: 31 g ai/ha, 0 to 100 scale (0 no effect, 100 complete control), read-out: Pigweed plant response rating; for pest or weed control at 125 g/ha: 125 g ai/ha, 0 to 100 scale, read-out: Plant response rating, Pigweed
Source text: as §1, §2

kochia (Kochia scoparia) [6] = experiment: Test A preemergence; conditions: Bassia scoparia, pre-emergence, 240 h; for pest or weed control at 31 g/ha: 31 g ai/ha, 0 to 100 scale (0 no effect, 100 complete control), read-out: Kochia plant response rating; for pest or weed control at 125 g/ha: 125 g ai/ha, 0 to 100 scale, read-out: Plant response rating, Kochia
Source text: as §1, §2

[7] = system: galium (catchweed bedstraw, Galium aparine); experiment: Test A postemergence; conditions: Galium, post-emergence, 240 h, 0 to 100 scale, read-out: Plant response rating, Galium; for pest or weed control at 31 g/ha: 31 g ai/ha; for pest or weed control at 125 g/ha: 125 g ai/ha
Source text: as §1, §2

[8] = system: wheat (Triticum aestivum); experiment: Test A postemergence; conditions: Triticum aestivum, post-emergence, 240 h, 0 to 100 scale, read-out: Plant response rating, Wheat; for plant injury at 31 g/ha: 31 g ai/ha; for plant injury at 125 g/ha: 125 g ai/ha
Source text: as §1, §2

corn (Zea mays) = experiment: Test A postemergence; conditions: Zea mays, post-emergence, 240 h, 0 to 100 scale; for Corn plant response rating (crop injury, 0 = no effect, 100 = complete kill) at 31 g/ha: 31 g ai/ha; for Corn plant response rating (crop injury, 0 = no effect, 100 = complete kill) at 125 g/ha: 125 g ai/ha
Source text: as §1, §2

[9] = system: Italian ryegrass (Lolium multiflorum); experiment: Test A postemergence; conditions: Lolium multiflorum, post-emergence, 240 h, 0 to 100 scale, read-out: Plant response rating, Ryegrass, Italian; for pest or weed control at 31 g/ha: 31 g ai/ha; for pest or weed control at 125 g/ha: 125 g ai/ha
Source text: as §1, §2

[10] = system: barnyardgrass (Echinochloa crus-galli); experiment: Test A postemergence; conditions: Echinochloa crus-galli, post-emergence, 240 h, 0 to 100 scale, read-out: Plant response rating, Barnyardgrass; for pest or weed control at 31 g/ha: 31 g ai/ha; for pest or weed control at 125 g/ha: 125 g ai/ha
Source text: as §1, §2

[11] = system: ragweed (common ragweed, Ambrosia elatior); experiment: Test A postemergence; conditions: Ambrosia artemisiifolia, post-emergence, 240 h, 0 to 100 scale, read-out: Plant response rating, Ragweed; for pest or weed control at 31 g/ha: 31 g ai/ha; for pest or weed control at 125 g/ha: 125 g ai/ha
Source text: as §1, §2

[12] = system: giant foxtail (Setaria faberii); experiment: Test A postemergence; conditions: Setaria faberi, post-emergence, 240 h, 0 to 100 scale, read-out: Plant response rating, Foxtail, Giant; for pest or weed control at 31 g/ha: 31 g ai/ha; for pest or weed control at 125 g/ha: 125 g ai/ha
Source text: as §1, §2

[13] = system: pigweed (Amaranthus retroflexus); experiment: Test A postemergence; conditions: Amaranthus retroflexus, post-emergence, 240 h, 0 to 100 scale, read-out: Plant response rating, Pigweed; for pest or weed control at 31 g/ha: 31 g ai/ha; for pest or weed control at 125 g/ha: 125 g ai/ha
Source text: as §1, §2

[14] = system: blackgrass (Alopecurus myosuroides); experiment: Test A postemergence; conditions: Alopecurus myosuroides, post-emergence, 240 h, 0 to 100 scale, read-out: Plant response rating, Blackgrass; for pest or weed control at 31 g/ha: 31 g ai/ha; for pest or weed control at 125 g/ha: 125 g ai/ha
Source text: as §1, §2

kochia (Kochia scoparia) [15] = experiment: Test A postemergence; conditions: Bassia scoparia, post-emergence, 240 h, 0 to 100 scale, read-out: Plant response rating, Kochia; for pest or weed control at 31 g/ha: 31 g ai/ha; for pest or weed control at 125 g/ha: 125 g ai/ha
Source text: as §1, §2

Structure (SMILES): N#Cc1cccc(Oc2ncc(Cl)cn2)c1Oc1cccnc1 [Compound 8]
- pest or weed control at 31 g/ha [1]: 0%
- pest or weed control at 125 g/ha [1]: 0%
- pest or weed control at 31 g/ha [2]: 0%
- pest or weed control at 125 g/ha [2]: 0%
- pest or weed control at 31 g/ha [3]: 0%
- pest or weed control at 125 g/ha [3]: 0%
- pest or weed control at 31 g/ha [4]: 0%
- pest or weed control at 125 g/ha [4]: 0%
- pest or weed control at 31 g/ha [5]: 0%
- pest or weed control at 125 g/ha [5]: 10%
- pest or weed control at 31 g/ha (kochia (Kochia scoparia) [6]): 0%
- pest or weed control at 125 g/ha (kochia (Kochia scoparia) [6]): 0%
- pest or weed control at 31 g/ha [7]: 10%
- pest or weed control at 125 g/ha [7]: 20%
- plant injury at 31 g/ha [8]: 0%
- plant injury at 125 g/ha [8]: 0%
- Corn plant response rating (crop injury, 0 = no effect, 100 = complete kill) at 31 g/ha (corn (Zea mays)): 0%
- Corn plant response rating (crop injury, 0 = no effect, 100 = complete kill) at 125 g/ha (corn (Zea mays)): 10%
- pest or weed control at 31 g/ha [9]: 0%
- pest or weed control at 125 g/ha [9]: 0%
- pest or weed control at 31 g/ha [10]: 0%
- pest or weed control at 125 g/ha [10]: 10%
- pest or weed control at 31 g/ha [11]: 0%
- pest or weed control at 125 g/ha [11]: 0%
- pest or weed control at 31 g/ha [12]: 0%
- pest or weed control at 125 g/ha [12]: 0%
- pest or weed control at 31 g/ha [13]: 10%
- pest or weed control at 125 g/ha [13]: 20%
- pest or weed control at 31 g/ha [14]: 0%
- pest or weed control at 125 g/ha [14]: 0%
- pest or weed control at 31 g/ha (kochia (Kochia scoparia) [15]): 10%
- pest or weed control at 125 g/ha (kochia (Kochia scoparia) [15]): 30%

Structure (SMILES): N#Cc1cccc(Oc2ncc(F)cn2)c1Oc1ccc(Br)cn1 [Compound 9]
- pest or weed control at 31 g/ha [1]: 0%
- pest or weed control at 125 g/ha [1]: 0%
- pest or weed control at 31 g/ha [2]: 30%
- pest or weed control at 125 g/ha [2]: 90%
- pest or weed control at 31 g/ha [3]: 0%
- pest or weed control at 125 g/ha [3]: 10%
- pest or weed control at 31 g/ha [4]: 30%
- pest or weed control at 125 g/ha [4]: 100%
- pest or weed control at 31 g/ha [5]: 100%
- pest or weed control at 125 g/ha [5]: 100%
- pest or weed control at 31 g/ha (kochia (Kochia scoparia) [6]): 40%
- pest or weed control at 125 g/ha (kochia (Kochia scoparia) [6]): 100%
- pest or weed control at 31 g/ha [7]: 70%
- pest or weed control at 125 g/ha [7]: 100%
- plant injury at 31 g/ha [8]: 0%
- plant injury at 125 g/ha [8]: 40%
- Corn plant response rating (crop injury, 0 = no effect, 100 = complete kill) at 31 g/ha (corn (Zea mays)): 0%
- Corn plant response rating (crop injury, 0 = no effect, 100 = complete kill) at 125 g/ha (corn (Zea mays)): 10%
- pest or weed control at 31 g/ha [9]: 20%
- pest or weed control at 125 g/ha [9]: 70%
- pest or weed control at 31 g/ha [10]: 0%
- pest or weed control at 125 g/ha [10]: 50%
- pest or weed control at 31 g/ha [11]: 30%
- pest or weed control at 125 g/ha [11]: 70%
- pest or weed control at 31 g/ha [12]: 10%
- pest or weed control at 125 g/ha [12]: 70%
- pest or weed control at 31 g/ha [13]: 50%
- pest or weed control at 125 g/ha [13]: 100%
- pest or weed control at 31 g/ha [14]: 30%
- pest or weed control at 125 g/ha [14]: 80%
- pest or weed control at 31 g/ha (kochia (Kochia scoparia) [15]): 60%
- pest or weed control at 125 g/ha (kochia (Kochia scoparia) [15]): 100%
